Our source for the IC50 values is patent US11174245B2, “Benzimidazole compounds and derivatives as EGFR inhibitors” (Boehringer Ingelheim International GmbH, priority 2018, dated 2021).

Where two headings read alike, the source gives them in different places.

The target in experiment [1] is EGFR del19 T790M C797S protein in Ba/F3 cells (Homo sapiens, UniProt P00533, C797S/DEL746-750/T790M). Put plainly: pEGFR assay (AlphaScreen Surefire, EGFR Tyr1068 phosphorylation). The experiment is classed as cell-based. The method, boiled down: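 Transduced Ba/F3 cells, puromycin-selected and grown IL-3 independent, were treated with compound at 60.000 cells/well for 4 h at 37° C. Lysis followed for 20 min at room temperature, and Tyr1068 phospho-EGFR in lysate was detected after 2 h dark incubation. Results are IC50 values.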

The target in experiment [2] is EGFR (mutated) 695-1022, T790M, C797S, L858R (Homo sapiens (Human), UniProt P00533, C797S/L858R/T790M). Put plainly: Biochemical EGFR inhibition assay (TR-FRET, poly-GT substrate), EGFR T790M C797S L858R. Summed up: (§1)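 Phosphorylation of tagged poly-GT substrate by EGFR forms measured at 5 μM and 100 μM ATP (final). Top compound concentration 100 μM, eleven fivefold dilutions, in duplicate. Results given as IC50.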

Experiment [3] addresses EGFR wt (Homo sapiens (Human), UniProt P00533). Nature of the experiment: Biochemical EGFR inhibition assay (TR-FRET, poly-GT substrate), EGFR wt. The method, boiled down: as §1
(Time-resolved FRET reads energy transfer from a long-lived donor to a nearby acceptor.)

For experiment [4], the target named is EGFR (d746-750 T790M C797S) (Homo sapiens (Human), UniProt P00533, C797S/DEL746-750/T790M). Put plainly: Biochemical EGFR inhibition assay (TR-FRET, poly-GT substrate), EGFR d746-750 T790M C797S. The protocol:
Biochemical EGFR Inhibition Assays
Initially, the inhibitory effect of compounds according to the invention is measured in biochemical assays which measure the phosphorylation activity of EGFR enzyme forms on poly-GT substrate in the presence of different concentrations of ATP (5 μM and 100 μM final assay concentration).
The following enzyme forms of EGFR are representative examples that can be used in these assays at the given concentrations:
For the chosen highest assay concentration of 100 μM, 150 nL of compound solution is transferred from a 10 mM DMSO compound stock solution. A series of eleven fivefold dilutions per compound is transferred to the assay plate, compound dilutions are tested in duplicates. DMSO is added as backfill to a total volume of 150 nL. The assay runs on a fully automated robotic system.
These biochemical EGFR enzyme form compound dose-response assays quantify the kinase activity via phosphorylation of a tagged poly-GT substrate. The results of the assay are provided as IC50 values.

Where [5] appears, read: read-out: LR_TM_CS (100 μM ATP) IC50, 100 μM ATP.
Setting [6] is: read-out: wt (100 μM ATP) IC50, 100 μM ATP.
Setting [7] is: read-out: LR_TM_CS (5 μM ATP) IC50, 5 μM ATP.
The mark [8] stands for this setting: read-out: wt (5 μM ATP) IC50, 5 μM ATP.

EGFR (d746-750 T790M C797S), sequence (P00533 other isoform, or with tags, fused parts or gaps T790M/C797S/del 1-694/del 746-750 limits assumed): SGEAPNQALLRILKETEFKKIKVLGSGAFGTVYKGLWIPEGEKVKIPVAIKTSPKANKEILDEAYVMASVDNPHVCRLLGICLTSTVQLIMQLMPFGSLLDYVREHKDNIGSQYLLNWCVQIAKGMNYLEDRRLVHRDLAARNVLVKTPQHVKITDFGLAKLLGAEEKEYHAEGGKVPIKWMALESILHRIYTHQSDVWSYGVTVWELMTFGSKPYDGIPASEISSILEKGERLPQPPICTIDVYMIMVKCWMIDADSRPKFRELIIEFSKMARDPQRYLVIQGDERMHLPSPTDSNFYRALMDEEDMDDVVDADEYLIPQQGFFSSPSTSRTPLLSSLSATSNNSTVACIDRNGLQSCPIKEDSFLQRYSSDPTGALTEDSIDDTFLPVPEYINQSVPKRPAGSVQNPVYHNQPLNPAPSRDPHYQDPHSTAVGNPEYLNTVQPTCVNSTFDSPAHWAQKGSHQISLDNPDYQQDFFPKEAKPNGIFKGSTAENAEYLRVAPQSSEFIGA
EGFR wt, sequence (P00533 25-1210): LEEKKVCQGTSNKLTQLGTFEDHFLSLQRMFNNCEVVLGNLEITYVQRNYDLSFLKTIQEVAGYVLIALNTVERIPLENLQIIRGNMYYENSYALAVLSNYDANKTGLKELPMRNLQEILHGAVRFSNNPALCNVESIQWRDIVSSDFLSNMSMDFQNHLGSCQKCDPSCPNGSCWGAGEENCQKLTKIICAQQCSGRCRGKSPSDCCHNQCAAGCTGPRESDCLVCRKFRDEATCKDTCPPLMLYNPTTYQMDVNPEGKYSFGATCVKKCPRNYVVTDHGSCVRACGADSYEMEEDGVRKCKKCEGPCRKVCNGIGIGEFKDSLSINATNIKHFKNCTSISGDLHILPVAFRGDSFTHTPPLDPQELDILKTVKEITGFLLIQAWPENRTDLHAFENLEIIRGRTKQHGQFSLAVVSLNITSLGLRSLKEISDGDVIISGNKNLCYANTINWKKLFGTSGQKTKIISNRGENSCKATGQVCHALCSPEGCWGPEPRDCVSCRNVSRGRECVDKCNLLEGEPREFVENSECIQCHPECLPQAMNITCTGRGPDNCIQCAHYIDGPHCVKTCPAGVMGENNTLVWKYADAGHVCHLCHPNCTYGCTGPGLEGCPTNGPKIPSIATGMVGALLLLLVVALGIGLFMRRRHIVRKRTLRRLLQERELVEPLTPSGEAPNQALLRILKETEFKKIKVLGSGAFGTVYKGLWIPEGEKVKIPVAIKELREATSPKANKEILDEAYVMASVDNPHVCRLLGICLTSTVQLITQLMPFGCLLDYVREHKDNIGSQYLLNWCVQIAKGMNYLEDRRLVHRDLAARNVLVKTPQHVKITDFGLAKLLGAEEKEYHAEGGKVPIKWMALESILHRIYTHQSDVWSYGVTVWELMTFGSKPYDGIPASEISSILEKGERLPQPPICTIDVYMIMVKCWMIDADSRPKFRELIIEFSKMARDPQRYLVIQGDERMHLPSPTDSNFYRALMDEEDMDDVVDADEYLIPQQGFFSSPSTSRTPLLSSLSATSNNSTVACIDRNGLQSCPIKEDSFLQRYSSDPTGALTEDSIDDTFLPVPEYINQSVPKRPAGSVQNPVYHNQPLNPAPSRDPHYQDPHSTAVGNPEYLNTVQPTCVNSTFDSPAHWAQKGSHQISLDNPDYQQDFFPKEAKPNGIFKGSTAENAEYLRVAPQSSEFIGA
EGFR del19 T790M C797S protein in Ba/F3 cells, sequence (P00533 with tags, fused parts or gaps C797S/DEL746-750/T790M limits assumed): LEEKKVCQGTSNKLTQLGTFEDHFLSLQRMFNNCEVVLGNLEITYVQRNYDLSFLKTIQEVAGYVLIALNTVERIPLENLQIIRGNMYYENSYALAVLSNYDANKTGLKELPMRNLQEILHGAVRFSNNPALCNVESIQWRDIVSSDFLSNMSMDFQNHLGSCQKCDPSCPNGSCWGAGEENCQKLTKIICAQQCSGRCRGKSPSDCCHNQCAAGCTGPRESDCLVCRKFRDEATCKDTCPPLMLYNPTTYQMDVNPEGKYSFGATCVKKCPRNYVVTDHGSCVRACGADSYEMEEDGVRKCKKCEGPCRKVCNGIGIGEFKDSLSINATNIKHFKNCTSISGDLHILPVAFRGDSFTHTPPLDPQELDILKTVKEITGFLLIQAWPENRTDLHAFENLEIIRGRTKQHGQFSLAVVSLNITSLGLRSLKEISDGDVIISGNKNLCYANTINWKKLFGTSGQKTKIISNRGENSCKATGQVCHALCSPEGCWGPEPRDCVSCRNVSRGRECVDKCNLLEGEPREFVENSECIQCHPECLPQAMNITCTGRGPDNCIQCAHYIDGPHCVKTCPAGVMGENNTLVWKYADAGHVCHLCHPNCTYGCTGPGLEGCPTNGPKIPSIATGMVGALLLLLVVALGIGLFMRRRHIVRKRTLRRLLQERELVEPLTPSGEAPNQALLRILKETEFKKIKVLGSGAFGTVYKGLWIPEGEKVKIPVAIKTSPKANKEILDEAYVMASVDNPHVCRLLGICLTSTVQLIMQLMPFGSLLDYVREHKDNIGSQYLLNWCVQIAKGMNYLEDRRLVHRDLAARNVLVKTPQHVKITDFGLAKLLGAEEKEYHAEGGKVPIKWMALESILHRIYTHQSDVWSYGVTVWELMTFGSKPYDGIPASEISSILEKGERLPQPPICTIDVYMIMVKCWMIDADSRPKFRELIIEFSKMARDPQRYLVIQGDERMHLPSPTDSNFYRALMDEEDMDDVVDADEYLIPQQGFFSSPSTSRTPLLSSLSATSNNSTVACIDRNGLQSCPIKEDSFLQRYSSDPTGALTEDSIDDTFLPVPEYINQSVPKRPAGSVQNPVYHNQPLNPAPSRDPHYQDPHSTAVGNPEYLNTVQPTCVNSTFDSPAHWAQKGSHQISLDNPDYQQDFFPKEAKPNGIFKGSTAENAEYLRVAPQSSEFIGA
EGFR (mutated) 695-1022, T790M, C797S, L858R, sequence (P00533 695-1022 T790M/C797S/L858R): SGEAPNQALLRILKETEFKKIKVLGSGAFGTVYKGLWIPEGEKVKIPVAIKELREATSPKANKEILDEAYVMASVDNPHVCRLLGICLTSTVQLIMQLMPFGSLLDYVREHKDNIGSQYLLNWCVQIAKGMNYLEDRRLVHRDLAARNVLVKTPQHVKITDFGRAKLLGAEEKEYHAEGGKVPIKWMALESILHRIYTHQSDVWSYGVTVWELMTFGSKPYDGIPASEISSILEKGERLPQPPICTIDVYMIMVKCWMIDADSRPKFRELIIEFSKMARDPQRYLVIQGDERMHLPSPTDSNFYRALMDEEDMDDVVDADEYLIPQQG

A word on the IC50: it is the concentration needed to halve the response being measured. Turning to `COC(=O)Cc1ccc2c(c1)[nH]/c(=N\C(=O)c1ccnc(-c3cnn(C)c3)c1)n2CC(C)(C)O` [I-055], the IC50 stood at 10 nM in experiment [1], 86.9 nM in experiment [2] (setting [5]), 26300 nM in experiment [3] (setting [6]) and 7.3 nM in experiment [4] (100 μM ATP).
The corresponding values for `Cc1ccc2c(c1)[nH]/c(=N\C(=O)c1ccnc(-c3cnn(C)c3)c1)n2CC(C)(C)O` [I-033] are 9 nM, 91.6 nM, 9510 nM and 8.6 nM.
In the same order, the values of `COC(=O)Cc1ccc2c(c1)[nH]/c(=N\C(=O)c1ccnc(-c3cccnc3)c1)n2CC(C)(C)O` [I-054] are 7 nM, 104 nM, 79700 nM and 4.1 nM.
The corresponding values for `Cc1c(-c2cc(C(=O)/N=c3\[nH]c4ccccc4n3C3CCCC3)ccn2)cnn1C` [I-004] are 13 nM, 38.5 nM, 1950 nM and 4.7 nM.
`CCCn1/c(=N/C(=O)c2ccnc(-c3cnn(C)c3)c2)[nH]c2ccccc21` [I-014]: the IC50 in experiment [1] is 94 nM; in experiment [2] (setting [5]), 146 nM; in experiment [3] (setting [6]), > 100000 nM; in experiment [4] (100 μM ATP), 48.8 nM.
Regarding `Cc1ccc2[nH]/c(=N\C(=O)c3ccnc(-c4cnn(C)c4)c3)n(CC(C)(C)O)c2c1` [I-034], the 50% inhibitory concentration (IC50) was determined as 21 nM in experiment [1], 196 nM in experiment [2] (setting [5]), 3950 nM in experiment [3] (setting [6]) and 22.8 nM in experiment [4] (100 μM ATP).
As to `CN(C)Cc1ccc2c(c1)[nH]/c(=N\C(=O)c1ccnc(-c3cnn(C)c3)c1)n2CC(C)(C)O` [I-029], the IC50 turned out to be 58 nM in experiment [1], 190 nM in experiment [2] (setting [5]), 14800 nM in experiment [3] (setting [6]) and 72.4 nM in experiment [4] (100 μM ATP).
In the same order, the values of `CN1CCC(c2ccc3c(c2)[nH]/c(=N\C(=O)c2ccnc(-c4cnn(C)c4)c2)n3CC(C)(C)O)CC1=O` (centres unmarked) [I-035] are 79 nM, 79.3 nM, 6670 nM and 5.6 nM.
As for `CC(=O)N1CCC(c2ccc3c(c2)[nH]/c(=N\C(=O)c2ccnc(-c4cnn(C)c4)c2)n3[C@H]2CC[C@@H](O)CC2)CC1` [I-219], the IC50 in experiment [1] amounted to 2 nM; in experiment [2] (setting [7]), 0.4 nM; in experiment [3] (setting [8]), 25.8 nM; in experiment [4] (5 μM ATP) it was 0.1 nM.
In the case of `Cc1c(-c2cc(C(=O)/N=c3\[nH]c4ccccc4n3CC(C)(C)O)ccn2)cnn1C` [I-017], the half-maximal inhibitory concentration (IC50) in experiment [1] is 7 nM; in experiment [2] (setting [7]) it was 3.9 nM; in experiment [2] (setting [5]), 111 nM; in experiment [3] (setting [8]), 1880 nM; in experiment [3] (setting [6]), 9960 nM; in experiment [4] (100 μM ATP), 14.2 nM.
As to `Cc1cc(C(=O)/N=c2\[nH]c3ccc(CN4CCOCC4)cc3n2[C@H]2CC[C@@H](O)CC2)cc(-c2cnn(C)c2)n1` [I-223], the IC50 in experiment [1] worked out at 4 nM; in experiment [2] (setting [7]) it was 1.8 nM; in experiment [3] (setting [8]), 2020 nM; in experiment [4] (5 μM ATP), 0.5 nM.
`CC(=O)N1CCC(c2ccc3c(c2)[nH]/c(=N\C(=O)c2ccnc(-c4cnn(C)c4C)c2)n3CC(C)(C)O)CC1` [I-026]: the IC50 in experiment [1] was 7 nM; in experiment [2] (setting [5]) it was 34.5 nM; in experiment [3] (setting [6]), 1150 nM; in experiment [4] (100 μM ATP) it was 4.4 nM.
As for `Cc1cc(C(=O)/N=c2\[nH]c3ccc(CN4CCOCC4)cc3n2C2CCCCC2)cc(-c2cnn(C)c2)n1` [I-221], the IC50 was found to be 5 nM in experiment [1], 2 nM in experiment [2] (setting [7]), 2050 nM in experiment [3] (setting [8]) and 0.4 nM in experiment [4] (5 μM ATP).
Consider `CC(C)Cn1/c(=N/C(=O)c2ccnc(-c3cnn(C)c3)c2)[nH]c2ccccc21` [I-012], for which the IC50 was 25 nM in experiment [1]; 1.9 nM in experiment [2] (setting [7]); 64.6 nM in experiment [2] (setting [5]); 403 nM in experiment [3] (setting [8]); > 100000 nM in experiment [3] (setting [6]); 10.5 nM in experiment [4] (100 μM ATP).
Consider `Cn1cc(-c2cc(C(=O)/N=c3\[nH]c4ccccc4n3C3CCC[S+]([O-])C3)ccn2)cn1` (centres unmarked) [I-220], for which the IC50 turned out to be 59 nM in experiment [1], 32.7 nM in experiment [2] (setting [7]), 2860 nM in experiment [3] (setting [8]) and 2 nM in experiment [4] (5 μM ATP).
With `CC(C)(O)Cn1/c(=N/C(=O)c2ccnc(-n3cnc4ccccc43)c2)[nH]c2ccccc21` [I-039], the IC50 in experiment [1] is 9 nM; in experiment [2] (setting [5]) it was 508 nM; in experiment [3] (setting [6]) it was > 100000 nM; in experiment [4] (100 μM ATP), 36 nM.
Turning to `Cn1cc(-c2cc(C(=O)/N=c3\[nH]c4ccccc4n3[C@H]3CC[C@@H](O)C3)ccn2)cn1` [I-009], the IC50 came out at 30 nM in experiment [1], 184 nM in experiment [2] (setting [5]), 12400 nM in experiment [3] (setting [6]) and 49 nM in experiment [4] (100 μM ATP).
In the same order, the values of `CN1CCC(c2ccc3c(c2)[nH]/c(=N\C(=O)c2ccnc(-n4cnc5cccc(F)c54)c2)n3CC(C)(C)O)CC1` [I-030] are 6 nM, 25.5 nM, 1960 nM and 3.4 nM.
In the same order, the values of `O=C(/N=c1\[nH]c2ccccc2n1C1CCCC1)c1ccnc(-c2cccnc2)c1` [I-002] are 9 nM, 67.4 nM, 2510 nM and 4.6 nM.
Consider `Cc1cc(C(=O)/N=c2\[nH]c3ccc(C4CCN(C)CC4)cc3n2[C@H]2CC[C@@H](O)CC2)cc(-c2cnn(C)c2)n1` [I-225], for which the IC50 in experiment [1] was found to be 2 nM; in experiment [2] (setting [7]), 0.4 nM; in experiment [3] (setting [8]), 162 nM; in experiment [4] (5 μM ATP), 0.2 nM.
In the case of `Cn1cc(-c2cc(C(=O)/N=c3\[nH]c4ccccc4n3C3CCCC3)ccn2)cn1` [I-003], the IC50 in experiment [1] is 29 nM; in experiment [2] (setting [5]), 61.7 nM; in experiment [3] (setting [6]) it was 4080 nM; in experiment [4] (100 μM ATP), 9.9 nM.
In the case of `CC(=O)N1CCC(c2ccc3c(c2)[nH]/c(=N\C(=O)c2ccnc(-c4cnn(C)c4)c2)n3C2CCCC2)CC1` [I-008], the IC50 in experiment [1] is 6 nM; in experiment [2] (setting [7]) it was 1.5 nM; in experiment [2] (setting [5]) it was 39.6 nM; in experiment [3] (setting [8]), 185 nM; in experiment [3] (setting [6]), > 4000 nM; in experiment [4] (100 μM ATP), 5 nM.
For `Cc1cc(C(=O)/N=c2\[nH]c3ccccc3n2[C@H]2CC[C@@H](O)CC2)cc(-c2cnn(C)c2)n1` [I-143], the IC50 in experiment [1] was 3 nM; in experiment [2] (setting [7]), 1.9 nM; in experiment [2] (setting [5]) it was 104 nM; in experiment [3] (setting [8]), 2180 nM; in experiment [3] (setting [6]), > 100000 nM; in experiment [4] (5 μM ATP), 0.4 nM.
On to `Cc1cc(C(=O)/N=c2\[nH]c3ccc(CN4CCN(C)CC4)cc3n2C2CCCCC2)cc(-c2cnn(C)c2)n1` [I-224], for which the IC50 in experiment [1] was determined as 3 nM; in experiment [2] (setting [7]) it was 0.5 nM; in experiment [3] (setting [8]), 267 nM; in experiment [4] (5 μM ATP), 0.2 nM.
Consider `Cn1cc(-c2cc(C(=O)/N=c3\[nH]c4cc(C5CCCOC5)ccc4n3CC(C)(C)O)ccn2)cn1` (centres unmarked) [I-053], for which the half-maximal inhibitory concentration (IC50) stood at 2 nM in experiment [1], 94.1 nM in experiment [2] (setting [5]), 5740 nM in experiment [3] (setting [6]) and 8.7 nM in experiment [4] (100 μM ATP).
`CN1CCC(c2ccc3c(c2)[nH]/c(=N\C(=O)c2ccnc(-c4cnn5cccnc45)c2)n3CC(C)(C)O)CC1` [I-032]: the IC50 is 1 nM in experiment [1], 3 nM in experiment [2] (setting [5]), 366 nM in experiment [3] (setting [6]) and 0.6 nM in experiment [4] (100 μM ATP).
In the same order, the values of `COc1ccncc1-c1cc(C(=O)/N=c2\[nH]c3cc(C4CCN(C)CC4)ccc3n2CC(C)(C)O)ccn1` [I-028] are 1 nM, 4.2 nM, 591 nM and 2.4 nM.
The corresponding values for `Cn1cc(-c2cc(C(=O)/N=c3\[nH]c4ccccc4n3[C@H]3CC[C@H](O)C3)ccn2)cn1` [I-013] are 13 nM, 76.5 nM, 3770 nM and 18.4 nM.
The corresponding values for `Cn1cc(-c2cc(C(=O)/N=c3\[nH]c4ccccc4n3C3CCC3)ccn2)cn1` [I-019] are 37 nM, 102 nM, 4370 nM and 26.3 nM.
In the case of `CN1CCC(c2ccc3c(c2)[nH]/c(=N\C(=O)c2ccnc(-c4cnn(C)c4)c2)n3C2CCCC2)CC1` [I-010], the IC50 in experiment [1] is 20 nM; in experiment [2] (setting [5]), 17.4 nM; in experiment [3] (setting [6]), 5110 nM; in experiment [4] (100 μM ATP), 2.9 nM.
